# Laboratory results as given in patent US11524966B1 (Valo Early Discovery, Inc., priority 2017, dated 2022).
# Target: T1, USP25 (USP25-His6, Boston Biochem E-546) (Homo sapiens, UniProt Q9UHP3)
# T1 construct: His6; purchased Boston Biochem E-546
# T1 sequence (Q9UHP3 1-1055): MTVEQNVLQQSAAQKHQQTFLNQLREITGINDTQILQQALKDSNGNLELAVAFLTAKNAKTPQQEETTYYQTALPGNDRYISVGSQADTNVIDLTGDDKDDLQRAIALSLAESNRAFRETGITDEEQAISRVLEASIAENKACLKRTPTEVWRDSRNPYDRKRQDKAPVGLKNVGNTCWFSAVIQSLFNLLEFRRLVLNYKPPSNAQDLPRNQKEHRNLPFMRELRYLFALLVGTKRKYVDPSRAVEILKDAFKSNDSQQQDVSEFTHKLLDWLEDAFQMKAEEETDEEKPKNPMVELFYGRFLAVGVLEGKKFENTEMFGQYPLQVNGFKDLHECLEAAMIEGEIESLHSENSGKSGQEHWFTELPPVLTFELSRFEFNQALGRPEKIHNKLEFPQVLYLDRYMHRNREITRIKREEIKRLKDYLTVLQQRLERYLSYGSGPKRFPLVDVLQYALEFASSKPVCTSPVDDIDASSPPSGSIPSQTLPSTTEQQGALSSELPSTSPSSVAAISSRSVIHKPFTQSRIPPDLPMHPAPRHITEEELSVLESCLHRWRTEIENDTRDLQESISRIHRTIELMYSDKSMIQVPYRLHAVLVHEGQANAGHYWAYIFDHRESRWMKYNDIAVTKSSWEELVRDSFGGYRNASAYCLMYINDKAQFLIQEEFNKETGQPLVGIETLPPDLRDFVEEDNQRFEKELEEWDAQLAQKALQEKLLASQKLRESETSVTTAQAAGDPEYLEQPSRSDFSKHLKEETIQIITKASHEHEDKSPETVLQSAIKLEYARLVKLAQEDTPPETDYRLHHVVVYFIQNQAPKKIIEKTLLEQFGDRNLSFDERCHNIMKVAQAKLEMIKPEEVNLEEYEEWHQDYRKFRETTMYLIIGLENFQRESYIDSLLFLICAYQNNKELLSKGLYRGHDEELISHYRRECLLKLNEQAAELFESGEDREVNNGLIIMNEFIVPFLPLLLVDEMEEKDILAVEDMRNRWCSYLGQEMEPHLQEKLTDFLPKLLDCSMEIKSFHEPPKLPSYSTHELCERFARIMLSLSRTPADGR
# Test: Ubiquitin-Rhodamine 110 Assay for USP25 Activity, Example A-2
# Type: biochemical
# Settings: Ubiquitin-Rhodamine 110 assay, Example A-2; read-out: USP25 A-2 IC50 range
# Outline: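 Steps: compound dilutions (top 25 μM, 3-fold, 10 points) were preincubated 30 min with 75 pM USP25-His6; 25 nM Ub-Rh110 substrate was added under initial-velocity conditions; after 45 min at room temperature, 10 mM citric acid stopped the reaction before fluorescence reading.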
row,SMILES,IC50 [nM]
1,"CO[C@H]1CN(c2ccc3c(c2F)OC[C@H](NC(=O)c2sc4nc(C)ccc4c2N)C3)C[C@@H]1N [Example 92, 3-amino-N-[(3R)-7-[(3S,4S)-3-amino-4-methoxypyrrolidin-1-yl]-8-fluoro-3,4-dihydro-2H-1-benzopyran-3-yl]-6-methylthieno[2,3-b]pyridine-2-carboxamide]",200 to 2000
2,"Cc1cnc2c(N)c(C(=O)N[C@H]3CCc4nc(N5CC6CC(C5)N6)ccc4C3)sc2n1 [Example 23-11, 7-amino-N-[(6S)-2-{3,6-diazabicyclo[3.1.1]heptan-3-yl}-5,6,7,8-tetrahydroquinolin-6-yl]-3-methylthieno[2,3-b]pyrazine-6-carboxamide]",200 to 2000
3,"Cc1nc2sc(C(=O)N[C@H]3COc4cc(N5CCNCC5)ncc4C3)c(N)c2cc1F [Example 72, (R)-3-amino-5-fluoro-6-methyl-N-(7-(piperazin-1-yl)-3,4-dihydro-2H-pyrano[3,2-c]pyridin-3-yl)thieno[2,3-b]pyridine-2-carboxamide]",200 to 2000
4,"Cc1ccc2c(N)c(C(=O)N[C@H]3Cc4ccc(N5CCNCC5)nc4C4(CC4)C3)sc2n1 (single isomer, unassigned) [Example 31-4, 3-amino-6-methyl-N-[(6′R)-2′-(piperazin-1-yl)-6′,7′-dihydro-5′H-spiro[cyclopropane-1,8′-quinoline]-6′-yl]thieno[2,3-b]pyridine-2-carboxamide]",200 to 2000
5,"CCc1cnc2sc(C(=O)N[C@@H]3COc4cc(N5CCNCC5)ccc4C3)c(N)c2n1 [Example 37, (S)-7-amino-2-ethyl-N-(7-(piperazin-1-yl)chroman-3-yl)thieno[2,3-b]pyrazine-6-carboxamide]",> 2000
6,"Cc1nc2sc(C(=O)N[C@H]3COc4cc(N5CC6CCC(C5)N6)c(F)cc4C3)c(N)c2s1 [Example 47, N-((3R)-7-(3,8-diazabicyclo[3.2.1]octan-3-yl)-6-fluorochroman-3-yl)-6-amino-2-methylthieno[2,3-d]thiazole-5-carboxamide]",> 2000
7,"Cc1ccc2c(N)c(C(=O)N[C@H]3COc4cc([C@H]5CCNC[C@H]5O)ccc4C3)sc2n1 [Example 62, 3-amino-N-((R)-7-((3S,4R)-3-hydroxypiperidin-4-yl)chroman-3-yl)-6-methylthieno[2,3-b]pyridine-2-carboxamide]",1 to 50
8,"Cc1ccc2c(N)c(C(=O)N[C@H]3COc4cc(N5C[C@H]6CCNC[C@H]65)ccc4C3)sc2n1 (single isomer, unassigned) [Example 33-4]",200 to 2000
9,"Cc1ccc2c(N)c(C(=O)N[C@H]3COc4c(F)c(N5CCNCC5)c(F)c(F)c4C3)sc2n1 [Example 35, 3-amino-6-methyl-N-[(3R)-5,6,8-trifluoro-7-(piperazin-1-yl)-3,4-dihydro-2H-1-benzopyran-3-yl]thieno[2,3-b]pyridine-2-carboxamide]",50 to 200
10,"Cc1ccc2c(N)c(C(=O)N[C@H]3COc4cc([C@@H]5CCNC[C@H]5F)ccc4C3)sc2n1 [Example 81, 3-amino-N-((R)-7-((3S,4S)-3-fluoropiperidin-4-yl)chroman-3-yl)-6-methylthieno[2,3-b]pyridine-2-carboxamide]",50 to 200
11,"O=C(N[C@H]1COc2cc(N3CCNCC3)ccc2C1)c1cnc2c(c1)CC[C@H]2O [Example 57, (R)-7-hydroxy-N-((R)-7-(piperazin-1-yl)chroman-3-yl)-6,7-dihydro-5H-cyclopenta[b]pyridine-3-carboxamide]",> 2000
12,"O=C(N[C@H]1COc2c(F)c(N3CC4CCC(C3)N4)cc(F)c2C1)c1cnc2c(c1)[C@H]1C[C@H]1CN2 [Example 90, (1aR,7bS)-N-((3R)-7-(3,8-diazabicyclo[3.2.1]octan-3-yl)-5,8-difluorochroman-3-yl)-1a,2,3,7b-tetrahydro-1H-cyclopropa[c][1,8]naphthyridine-6-carboxamide]",200 to 2000
13,"O=C(N[C@H]1COc2cc(N3CCNCC3)ccc2C1)c1cnc2c(ccn2Cc2ccccc2)c1 [Example 59, (R)-1-benzyl-N-(7-(piperazin-1-yl)chroman-3-yl)-1H-pyrrolo[2,3-b]pyridine-5-carboxamide]",1 to 50
14,"CCn1ccc2cc(C(=O)N[C@H]3COc4c(F)c([C@H]5CCNC[C@H]5O)cc(F)c4C3)nnc21 [Example 85, N-((R)-5,8-difluoro-7-((3S,4R)-3-hydroxypiperidin-4-yl)chroman-3-yl)-7-ethyl-7H-pyrrolo[2,3-c]pyridazine-3-carboxamide]",> 2000
15,"CCn1ccc2cc(C(=O)N[C@H]3COc4c(F)c([C@@H]5CCNC[C@@H]5O)cc(F)c4C3)nnc21 [Example 84, N-((R)-5,8-difluoro-7-((3R,4S)-3-hydroxypiperidin-4-yl)chroman-3-yl)-7-ethyl-7H-pyrrolo[2,3-c]pyridazine-3-carboxamide]",> 2000
16,"Cc1cnc2c(N)c(C(=O)N[C@H]3COc4cc(N5CCNCC5)ncc4C3)sc2n1 [Example 71, (R)-7-amino-3-methyl-N-(7-(piperazin-1-yl)-3,4-dihydro-2H-pyrano[3,2-c]pyridin-3-yl)thieno[2,3-b]pyrazine-6-carboxamide]",200 to 2000
17,Nc1c(C(=O)N[C@H]2COc3cc(N4CCNCC4)ccc3C2)sc2nc(C3CC3)sc12 [Example 45],200 to 2000
18,"Cc1ccc2c(N)c(C(=O)N[C@@H]3Cc4ccc(N5CCNCC5)nc4C4(CC4)C3)sc2n1 (single isomer, unassigned) [Example 31-3, 3-amino-6-methyl-N-[(6′S)-2-(piperazin-1-yl)-6′,7′-dihydro-5′H-spiro[cyclopropane-1,8′-quinoline]-6′-yl]thieno[2,3-b]pyridine-2-carboxamide]",> 2000
19,"O=C(N[C@H]1COc2cc(N3CCNCC3)ccc2C1)c1cnc2c(ccn2C(F)F)c1 [Example 38, (R)-1-(difluoromethyl)-N-(7-(piperazin-1-yl)chroman-3-yl)-1H-pyrrolo[2,3-b]pyridine-5-carboxamide]",> 2000
20,"Cc1ccc2c(N)c(C(=O)N[C@@H]3CCc4nc(N5CCNCC5)c(F)cc4C3)sc2n1 (single isomer, unassigned) [Example 30-2]",> 2000
21,"Cc1cnc2c(N)c(C(=O)N[C@H]3COc4cc(N5CCNCC5)c(C#N)c(F)c4C3)sc2n1 [Example 67, (R)-7-amino-N-(6-cyano-5-fluoro-7-(piperazin-1-yl)chroman-3-yl)-3-methylthieno[2,3-b]pyrazine-6-carboxamide]",50 to 200
22,"COC[C@H]1CN(c2ccc3c(n2)CC[C@H](NC(=O)c2sc4nc(C)ccc4c2N)C3)C[C@H]1N (single isomer, unassigned) [Example 24-2]",200 to 2000
23,"Cc1ccc2c(N)c(C(=O)N[C@@H]3CCc4nc(N5CCNCC5)ccc4C3)sc2n1 (single isomer, unassigned) [Example 23-8]",> 2000
